Reference: publication PMC6584941 (Cancer Letters, 2019)
Square brackets hold non-standard residues; d marks the D form. Ends that are not written are not given here. pY = N[C@@H](Cc1ccc(OP(=O)(O)O)cc1)C(=O)O

T1: Shc (PTB domain, Shc^PTB R175Q) (Homo sapiens, UniProt P29353, R285Q)
T1 sequence (P29353 156-339 R285Q limits assumed): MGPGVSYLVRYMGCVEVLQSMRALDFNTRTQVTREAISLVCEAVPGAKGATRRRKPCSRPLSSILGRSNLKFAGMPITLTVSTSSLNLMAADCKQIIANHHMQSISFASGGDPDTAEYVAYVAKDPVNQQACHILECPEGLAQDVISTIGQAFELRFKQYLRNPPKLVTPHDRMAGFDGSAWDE

T2: Shc (PTB domain, Shc^PTB) (Homo sapiens, UniProt P29353)
T2 sequence (P29353 156-339 limits assumed): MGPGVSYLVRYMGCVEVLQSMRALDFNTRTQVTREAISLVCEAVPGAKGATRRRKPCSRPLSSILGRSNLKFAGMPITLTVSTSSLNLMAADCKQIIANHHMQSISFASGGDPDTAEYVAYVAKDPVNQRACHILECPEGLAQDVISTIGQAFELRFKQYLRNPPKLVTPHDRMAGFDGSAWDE

T3: Shc phosphotyrosine binding (PTB) domain (UniProt P29353-2 17-207, Atto488 label, 1:1 protein:dye (in the MST only))
T3 sequence: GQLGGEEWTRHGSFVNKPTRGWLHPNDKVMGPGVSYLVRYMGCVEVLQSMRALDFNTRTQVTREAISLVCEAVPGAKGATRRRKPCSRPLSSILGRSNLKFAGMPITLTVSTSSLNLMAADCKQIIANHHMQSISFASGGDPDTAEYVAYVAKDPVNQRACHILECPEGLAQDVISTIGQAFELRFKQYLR


Legend:
[1] = target: T1, Shc (PTB domain, Shc^PTB R175Q); assay: MST with Atto488-labelled Shc^PTB R175Q; type: binding
[2] = target: T2, Shc (PTB domain, Shc^PTB); assay: ITC; type: binding
[3] = target: T3, Shc phosphotyrosine binding (PTB) domain; assay: MST

Kd [1] [µM] | Kd [2] [µM] | Kd [3] [µM] | Molecule
590 ± 54 | 38.2 ± 7.2 | – | COc1ccc2c(c1)c(CC(=O)O)c(C)n2C(=O)c1ccc(Cl)cc1 [indomethacin]
– | – | 0.261 | SPAFDNLY[pY]WDQ [ErbB2 pY1122 peptide]
